The results in this text go back to patent US20150353495A1 (PORTOLA PHARMACEUTICALS, INC., priority 2010, published 2015).

The structures appear in SMILES notation.

Usually IC50 stands for the concentration that gives 50% inhibition.

Holding throughout (type): biochemical
One test addresses T1, TYK2 (Homo sapiens, UniProt P29597).
T1 construct: 5 μl of catalytic domain recombinant Kinase enzyme+Tyr peptide substrate (Invitrogen, CA); purchased Invitrogen
T1 sequence (P29597 897-1176 limits assumed): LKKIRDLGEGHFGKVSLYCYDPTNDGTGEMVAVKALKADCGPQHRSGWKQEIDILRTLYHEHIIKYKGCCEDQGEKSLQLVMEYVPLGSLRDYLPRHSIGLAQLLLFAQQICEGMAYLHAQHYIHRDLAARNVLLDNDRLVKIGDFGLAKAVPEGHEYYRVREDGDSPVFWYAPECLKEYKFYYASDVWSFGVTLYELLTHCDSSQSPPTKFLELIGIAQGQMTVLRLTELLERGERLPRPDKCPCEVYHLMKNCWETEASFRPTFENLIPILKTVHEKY
The test is described as follows: Z'-LYTE kinase assay TYK2. As for the experimental part: JAK and TYK2 tyrosine phosphorylation activity is measured using the Z′-LYTE™ Technology developed by Invitrogen Corporation (Carlsbad, Calif.). For JAK1, JAK2 and JAK3 the Z′-LYTE™ Kinase Assay Kit-Tyr6 Peptide (part number PV4122) was used. For TYK2 the Z′-LYTE™ Kinase Assay Kit-Tyr6 Peptide (part number PV3192) was used. The Z′-LYTE™ biochemical assay employs a fluorescence resonance energy transfer (FRET) coupled-enzyme format and is based on the differential sensitivity of phosphorylated and non-phosphorylated peptides to proteolitic cleavage. The assay uses a synthetic peptide substrate that is labelled with a donor fluorophore (coumarin) and an acceptor fluorophore (fluorescein) that make up a FRET pair. In the primary reaction (the Kinase Reaction), the kinase transfers the γ-phosphate of ATP to a single tyrosine residue on the substrate, while the presence of a kinase inhibitor in the primary reaction suppresses phosphorylation. In the secondary reaction (the Development Reaction), a site-specific protease (the Development Reagent) is added. The development buffer quenches the Kinase Reaction, while the protease recognizes and cleaves non-phosphorylated Z′-LYTE™ peptide substrate. Cleavage disrupts FRET between the donor and acceptor fluorophores on the non-phosphoryleted substrate, while uncleaved, phosphorylated substrate maintains FRET.
To test the ability of candidate molecules to inhibit JAK tyrosine phosphorylation activity, molecules are reconstituted in 100% DMSO and serially diluted 1:10 in polypropylene v-bottom microtiter plates. The candidate molecules are then diluted 1:25 into kinase buffer and 2.5 μl transferred into duplicate wells of a 384 well low volume black microtiter assay plate (Corning, USA). The final DMSO concentration in the assay is 1%. The kinase reaction contains 2.5 μl of a candidate molecule, 5 μl of catalytic domain recombinant Kinase enzyme+Tyr peptide substrate (Invitrogen, CA) and 2.5 μl ATP (Invitrogen, CA). The kinase reaction is allowed to procede for 1 hour at room temperature. The protease reaction is initiated by the addition of 5 μl Development Reagent (Invitrogen, CA). After 1 hour incubation at room temperature the fluorescence is measured using a FlexStation plate reader (Molecular Devices, Sunnyvale, Calif.). The reader settings used are as follows: Fluorescence mode, endpoint, top read, excitation 400 nm, emission 445 nm and 520 nm, Auto Cutoff 435 nm and 515 nm, PMT sensitivity high, 6 reads per well Inhibition of JAK kinase activity is calculated as the percent phosphorylation of substrate in the presence of inhibitor compared to the percent phosphorylation of substrate in the absence of inhibitor. IC50's were derived using Xlfit 4.3 (IDBS, UK), 4 parameter logistic model 205: Y=(A+4B-A)/(1+((C/x)AD)))).

Another test concerns the target T2, JAK1 (Homo sapiens, UniProt P23458).
T2 construct: 5 μl of catalytic domain recombinant Kinase enzyme+Tyr peptide substrate (Invitrogen, CA); purchased Invitrogen
The test is described as follows: Z'-LYTE kinase assay JAK1. An outline of the steps:
(§1)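 Catalytic-domain recombinant kinase was incubated with Tyr6 FRET peptide, ATP and compound (1% DMSO final) for 1 h at room temperature. Protease development followed for 1 h, cleaving only non-phosphorylated peptide. Inhibition of phosphorylation was read as coumarin/fluorescein FRET fluorescence.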

The target of a further test is T3, JAK2 (Homo sapiens, UniProt O60674).
T3 construct: 5 μl of catalytic domain recombinant Kinase enzyme+Tyr peptide substrate (Invitrogen, CA); purchased Invitrogen
The test is described as follows: Z'-LYTE kinase assay JAK2. An outline of the steps: as §1

The target in a further test is T4, JAK3 (Homo sapiens, UniProt P52333).
T4 construct: 5 μl of catalytic domain recombinant Kinase enzyme+Tyr peptide substrate (Invitrogen, CA); purchased Invitrogen
The test is described as follows: Z'-LYTE kinase assay JAK3. An outline of the steps:
as §1

T2 sequence (P23458 875-1153 limits assumed): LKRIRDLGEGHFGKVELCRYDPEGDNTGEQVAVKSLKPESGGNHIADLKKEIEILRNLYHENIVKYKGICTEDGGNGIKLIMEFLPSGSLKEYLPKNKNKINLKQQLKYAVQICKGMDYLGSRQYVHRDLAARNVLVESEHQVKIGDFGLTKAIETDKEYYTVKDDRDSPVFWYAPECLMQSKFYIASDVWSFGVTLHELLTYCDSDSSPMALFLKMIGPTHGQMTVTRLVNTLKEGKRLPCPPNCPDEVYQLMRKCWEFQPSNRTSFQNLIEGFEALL
T3 sequence (O60674 849-1124 limits assumed): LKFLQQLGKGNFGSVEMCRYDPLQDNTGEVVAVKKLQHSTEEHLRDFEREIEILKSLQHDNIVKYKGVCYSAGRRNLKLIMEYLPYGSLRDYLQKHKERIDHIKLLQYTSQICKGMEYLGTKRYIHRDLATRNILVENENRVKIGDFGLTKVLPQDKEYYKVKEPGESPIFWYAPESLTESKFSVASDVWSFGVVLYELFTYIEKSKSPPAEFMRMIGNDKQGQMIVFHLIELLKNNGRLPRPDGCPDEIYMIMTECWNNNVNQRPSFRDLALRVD
T4 sequence (P52333 822-1111 limits assumed): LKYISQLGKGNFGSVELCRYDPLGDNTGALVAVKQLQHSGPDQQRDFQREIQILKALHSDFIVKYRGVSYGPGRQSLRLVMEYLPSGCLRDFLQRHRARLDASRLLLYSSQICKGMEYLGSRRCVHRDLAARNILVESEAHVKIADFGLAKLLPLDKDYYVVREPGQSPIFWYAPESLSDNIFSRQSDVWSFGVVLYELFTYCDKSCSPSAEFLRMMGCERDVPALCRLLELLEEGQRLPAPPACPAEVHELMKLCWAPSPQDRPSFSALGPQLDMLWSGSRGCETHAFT

For the compound `NC(=O)c1cnc(Nc2ccccc2)cc1NCc1ccccc1` [Example 9, 4-(benzylamino)-6-(phenylamino)nicotinamide], the IC50 on TYK2, against JAK1 and against JAK2 was > 1000 nM throughout.

`NC(=O)c1cnc(Nc2ccc(Cl)cc2)cc1NCc1ccccc1` [Example 13, 4-(benzylamino)-6-(4-chlorophenylamino)nicotinamide]: the IC50 at TYK2 was > 1000 nM; at JAK1 it was > 1000 nM; on JAK3, 100 to 1000 nM; against JAK2, > 1000 nM.

For `Cc1cccc(Nc2cc(Nc3ccc(OCCN4CCCC4)cc3)ncc2C(N)=O)c1` [Example 14, 4-(3-toluidino)-6-(4-(2-(pyrrolidin-1-yl)ethoxy)phenylamino)nicotinamide], the IC50 against TYK2 is 100 to 1000 nM; against JAK1, > 1000 nM; on JAK3 it was 100 to 1000 nM; on JAK2, 100 to 1000 nM.

As to `COc1ccc(Nc2cc(Nc3ccc(N4CCOCC4)cc3)c(C(N)=O)cn2)cc1` [Example 17, 6-(4-methoxyphenylamino)-4-(4-morpholinophenylamino)nicotinamide], the IC50 at TYK2 is > 1000 nM; against JAK1, > 1000 nM; at JAK3, 100 to 1000 nM; against JAK2, > 1000 nM.

Regarding `CC(=O)Nc1cccc(Nc2nc(NC3CCCC3)c(C(N)=O)cc2F)c1` [Example 18, 6-(3-acetamidophenylamino)-2-(cyclopentylamino)-5-fluoronicotinamide], the IC50 against TYK2 is 100 to 1000 nM; against JAK1, > 1000 nM; on JAK3 it was > 1000 nM; at JAK2 it was > 1000 nM.

Regarding `CC(=O)Nc1cccc(Nc2nc(NCc3ccccc3)c(C(N)=O)cc2F)c1` [Example 19, 6-(3-acetamidophenylamino)-2-(benzylamino)-5-fluoronicotinamide], the IC50 at TYK2, against JAK1, against JAK3 and against JAK2 was > 1000 nM in each case.

With `CC(=O)Nc1cccc(Nc2nc(N[C@H](C)c3ccccc3)c(C(N)=O)cc2F)c1` [Example 20, (R)-6-(3-acetamidophenylamino)-5-fluoro-2-(1-phenylethylamino)nicotinamide], the IC50 at TYK2, against JAK1, against JAK3 and against JAK2 was > 1000 nM in each case.

For `CC(=O)Nc1cccc(Nc2nc(N)c(C(N)=O)cc2F)c1` [Example 21, 6-(3-acetamidophenylamino)-2-amino-5-fluoronicotinamide], the IC50 against TYK2, against JAK1, against JAK3 and at JAK2 was > 1000 nM throughout.

Take `NC(=O)c1cc(F)c(Nc2cccc(-n3nccn3)c2)nc1NC1CCCC1` [Example 22, 6-(3-(2H-1,2,3-triazol-2-yl)phenylamino)-2-(cyclopentylamino)-5-fluoronicotinamide]: the IC50 against TYK2 is > 1000 nM; on JAK1 it was > 1000 nM; on JAK3 it was 100 to 1000 nM; against JAK2, > 1000 nM.

`NC(=O)c1cc(F)c(Nc2cccc(-n3nccn3)c2)nc1NCc1ccccc1` [Example 23, 6-(3-(2H-1,2,3-triazol-2-yl)phenylamino)-2-(benzylamino)-5-fluoronicotinamide]: the IC50 at TYK2, on JAK1, against JAK3 and against JAK2 was > 1000 nM throughout.

For the compound `NC(=O)c1cc(F)c(Nc2cccc(-n3nccn3)c2)nc1N` [Example 24, 6-(3-(2H-1,2,3-triazol-2-yl)phenylamino)-2-amino-5-fluoronicotinamide], the IC50 on TYK2, on JAK1, against JAK3 and on JAK2 was > 1000 nM each time.

As to `NC(=O)c1cc(F)c(Nc2ccc(OCCN3CCCC3)cc2)nc1NC1CCCC1` [Example 25, 2-(cyclopentylamino)-5-fluoro-6-(4-(2-(pyrrolidin-1-yl)ethoxy)phenylamino)nicotinamide], the IC50 against TYK2, against JAK1, against JAK3 and at JAK2 was > 1000 nM throughout.

As to `NC(=O)c1cc(F)c(Nc2ccc(OCCN3CCCC3)cc2)nc1NCc1ccccc1` [Example 26, 2-(benzylamino)-5-fluoro-6-(4-(2-(pyrrolidin-1-yl)ethoxy)phenylamino)nicotinamide], the IC50 at TYK2, on JAK1, at JAK3 and at JAK2 was > 1000 nM throughout.

Consider `C[C@@H](Nc1nc(Nc2ccc(OCCN3CCCC3)cc2)c(F)cc1C(N)=O)c1ccccc1` [Example 27, (R)-5-fluoro-2-(1-phenylethylamino)-6-(4-(2-(pyrrolidin-1-yl)ethoxy)phenylamino)nicotinamide], for which the IC50 against TYK2, against JAK1, on JAK3 and at JAK2 was > 1000 nM each time.

`CC(=O)N1CCN(c2ccc(Nc3cc(NCCc4ccccc4)c(C(N)=O)cn3)cc2)CC1` [Example 29]: the IC50 against TYK2 is 100 to 1000 nM; at JAK1, > 1000 nM; at JAK3, 10 to 100 nM; on JAK2, 100 to 1000 nM.

For `CC(C)(C)OC(=O)N1CCC(c2ccc(Nc3cc(NCc4cccc(F)c4)c(C(N)=O)cn3)cc2)CC1` [Example 77, tert-butyl 4-(4-(5-carbamoyl-4-(3-fluorobenzylamino)pyridin-2-ylamino)phenyl)piperidine-1-carboxylate], the IC50 on TYK2 is > 1000 nM; against JAK1, > 1000 nM; against JAK3 it was 100 to 1000 nM; against JAK2, > 1000 nM.

As to `CN(C)C(=O)c1ccc(Nc2cc(NCc3c(F)cccc3F)c(C(N)=O)cn2)cc1` [Example 102, 4-(2,6-difluorobenzylamino)-6-(4-(dimethylcarbamoyl)phenylamino)nicotinamide], the IC50 at TYK2 was in the range of 10 to 100 nM; on JAK1 it was 100 to 1000 nM; at JAK3 it was 1 to 10 nM; against JAK2, 10 to 100 nM.

With `CC(=O)N1CCN(c2ccc(Nc3cc(NC4(c5ccccc5)CC4)c(C(N)=O)cn3)cc2)CC1` [Example 126, 6-(4-(4-acetylpiperazin-1-yl)phenylamino)-4-(1-phenylcyclopropylamino)nicotinamide], the half-inhibitory concentration (IC50) against TYK2 is > 1000 nM; against JAK1, > 1000 nM; on JAK3, 1 to 10 nM; at JAK2 it was 100 to 1000 nM.

As for `CC(=O)N1CCN(c2ccc(Nc3cc(NC4(c5ccccc5F)CC4)c(C(N)=O)cn3)cc2)CC1` [Example 130, 6-(4-(4-acetylpiperazin-1-yl)phenylamino)-4-(1-(2-fluorophenyl)cyclopropylamino)nicotinamide], the IC50 lay within 100 to 1000 nM at TYK2, 100 to 1000 nM against JAK1, 1 to 10 nM at JAK3 and 10 to 100 nM against JAK2.

For `NC(=O)c1cnc(Nc2ccc(C3CCOCC3)cc2)cc1NCc1cccc(F)c1` [Example 143, 4-(3-fluorobenzylamino)-6-(4-(tetrahydro-2H-pyran-4-yl)phenylamino)nicotinamide], the 50% inhibitory concentration (IC50) against TYK2 was > 1000 nM; on JAK1, > 1000 nM; against JAK3 it was 10 to 100 nM; against JAK2, > 1000 nM.

Take `CCC(=O)N1CCC(c2ccc(Nc3cc(NCc4cc(F)ccc4F)c(C(N)=O)cn3)cc2)CC1` [Example 149, 4-(2,5-difluorobenzylamino)-6-(4-(1-propionylpiperidin-4-yl)phenylamino)nicotinamide]: the IC50 is 100 to 1000 nM at TYK2, 100 to 1000 nM at JAK1, 1 to 10 nM on JAK3 and 10 to 100 nM against JAK2.
